Laboratory results from PubChem BioAssay AID504322 (Emory University Molecular Libraries Screening Center, 2011).
Activity calls are given as the source filed them. How the calls were made is not given here.

Tested on: CHOP reporter cell assay, percent of control
Assay: CHOP reporter inhibitor potency, dose response, cell-based (AID 504322);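 further: CHO cells carrying a CHOP reporter stimulated with tunicamycin to induce ER stress; potency is for inhibition of the stress-induced reporter signal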

| SMILES | IC50 |
| --- | --- |
| CCOc1ccc(N(CC(=O)Nc2cccc(Cl)c2)S(=O)(=O)c2c(C)noc2C)cc1 | 2.02 µM |
| CC(C)(C)c1cc(CN2CCCC(O)C2)c(O)c(C(C)(C)C)c1 (configuration not stated) | 5.02 µM |
| Cc1cccc(C(=O)c2cnc3ccccc3c2-c2ccccc2)c1 | > 10 µM (inactive) |
| Cc1ccc(C(C(=O)NC2CCCCC2)N(C(=O)Cc2c[nH]c3ccccc23)c2ccccc2C)o1 (configuration not stated) | > 10 µM (inactive) |
| CC(C)c1ccc(-c2cc(C(=O)N3N=C(C(F)F)CC3(O)C(F)F)c3ccccc3n2)cc1 (configuration not stated) | 8.38 µM (inactive) |
| Cn1c(=O)[nH]c(=O)c2c1nc([N+](=O)[O-])n2Cc1ccccc1 | 4.64 µM |
| CCCc1nc2oc(C(=O)c3ccccc3)c(N)c2c2c1COC(C)(C)C2 | > 10 µM (inactive) |
| CC(C)=NOc1cc(NC(=O)CCl)cc([N+](=O)[O-])c1 | 9.61 µM (inactive) |
| COc1ccc(OCc2cccc(C(=O)O)c2)cc1 | 0.87 µM |
| CCCCCCn1c(CN2CCN(Cc3ccccc3)CC2)nc2c1c(=O)n(C)c(=O)n2C | 6.9 µM (inactive) |
| O=C(NC(Nc1nc2ccc([N+](=O)[O-])cc2s1)(C(F)(F)F)C(F)(F)F)c1ccccc1Cl | 0.87 µM |
| O=C1C(C2=NC(c3ccccn3)C3C(=O)N(c4ccc(OC(F)(F)F)cc4)C(=O)C23)=C(O)c2ccccc21 (configuration not stated) | 4.57 µM |
| CC(C)(C)c1ccc(O)c(N=Cc2cc(Br)ccc2O)c1 | 9.15 µM (inactive) |
| FC(F)(F)c1cccc(NC(=S)NC(c2ccccc2)c2ccccc2)c1 | 9.54 µM (inactive) |
| O=C1NCN(c2ccccc2)C12CCN(CCCC(c1ccc(F)cc1)c1ccc(F)cc1)CC2 | 7.76 µM (inactive) |
| FC(F)(F)c1cccc(Sc2nc(-c3ccccc3)nnc2C(F)(F)F)c1 | 9.58 µM (inactive) |
| CCCCc1nc2ccccc2c(=O)n1NC(=O)c1c(O)c2ccccc2n(C)c1=O | > 10 µM (inactive) |
| FC(F)(F)c1ccc(/C=N/NC(=S)NC2CCCCC2)cc1 | 5.03 µM |
| Oc1[nH]c2ccccc2c1N=NC(=S)NCCc1ccccc1 | 9.82 µM (inactive) |
| CCOc1cc(C(=O)CSc2nnc(CNc3ccc(Cl)cc3)o2)ccc1NC(=O)CC | 9.47 µM (inactive) |
| Cc1ccc(NC(=O)CCl)cc1S(=O)(=O)N1CCCCCC1 | > 10 µM (inactive) |
| Cc1ccc(-c2[nH]ncc2/C=N/n2c(COc3ccccc3)nc3ccccc3c2=O)cc1 | 3.18 µM (inactive) |
| CC(C)C(=O)N1CCC(CN=Cc2c(O)n(C3CCCCC3)c(=O)n(C3CCCCC3)c2=O)CC1 | 9.9 µM (inactive) |

| SMILES | IC50 |
| --- | --- |
| CC1CCN(S(=O)(=O)c2ccc3c(c2)C(=NO)c2cc(S(=O)(=O)N4CCC(C)CC4)ccc2-3)CC1 | 0.32 µM |
| COc1cc(C)nc(N2CCCC(C(=O)Nc3cccc(Cl)c3C)C2)n1 (configuration not stated) | 6.3 µM (inactive) |
| Cc1ccc2sc(N(CCCN(C)C)C(=O)c3nc4ccccc4s3)nc2c1C | 9.48 µM (inactive) |
| CCSc1nc(-c2ccccc2)nc(C(Cl)Cl)n1 | 6.32 µM (inactive) |
| OCCCNc1nccc(-c2cc(Nc3cccc(Cl)c3)ncn2)n1 | 0.3 µM |
| CCCCCCCn1c(=O)c(C(=O)Nc2cnccn2)c(O)c2ccccc21 | 3.68 µM |
| Cc1ccc(NC(=O)c2ccc(C#CC3(O)CCCCC3)cc2)cc1C | > 10 µM (inactive) |
| OC(CNCCc1ccc(C(F)(F)F)cc1)COc1ccc2ccccc2c1 (configuration not stated) | 9.41 µM (inactive) |
| CC(C)c1nnc(NC(=O)c2c(O)c3cccc4c3n(c2=O)CCC4)s1 | 4.99 µM (inactive) |
| CCC(NC(=O)Nc1nnc(C(F)(F)F)s1)(C(F)(F)F)C(F)(F)F | 2.56 µM (inactive) |
| CN(C)c1ccc(/C=C/c2ccc3c4ccccc4ccc3[n+]2-c2ccccc2)cc1 | 1.14 µM (inactive) |
| COc1cc(N(C(=O)Cc2cccs2)C(C(=O)NC2CCCCC2)c2ccc(C)cc2)ccc1-n1cnnn1 (configuration not stated) | 9.94 µM (inactive) |
| Cc1csc(NC(=O)CSc2nnc3c4ccccc4nc(C(C)(C)C)n23)n1 | 9.55 µM (inactive) |
| OC(CNCCc1ccc(C(F)(F)F)cc1)COc1cccc2ccccc12 (configuration not stated) | < 0.16 µM (inactive) |
| CC(C)Oc1ccc(CNC(=O)CC(c2ccccc2)c2cc(Cl)ccc2O)cc1 (configuration not stated) | 9.59 µM (inactive) |
| Cc1cccc(NS(=O)(=O)c2ccc(C3CCCCC3)cc2)c1 | 6.93 µM (inactive) |
| C=CCn1c(CCc2cc(C(C)(C)C)c(O)c(C(C)(C)C)c2)n[nH]c1=S | 7 µM (inactive) |
| CCOC(=O)C1=C(C)NC(C)=C(C(=O)OCC)C1/C=C/c1ccccc1 | > 10 µM (inactive) |
| Cc1ccc(C2(c3ccc(C)cc3)CC2C(=O)Nc2ccc([N+](=O)[O-])cc2O)cc1 (configuration not stated) | 8.64 µM (inactive) |
| CC(C)Cn1c(N)c(C(=O)COC(=O)C2CCCCC2)c(=O)n(C)c1=O | > 10 µM (inactive) |
| OC(COCC(F)(F)C(F)(F)C(F)(F)C(F)F)Cn1c2ccccc2c2ccccc21 (configuration not stated) | 2.39 µM |
| O=C1C(C2=NC(c3ccccn3)C3C(=O)N(c4ccc(Cl)cc4Cl)C(=O)C23)=C(O)c2ccccc21 (configuration not stated) | 7.17 µM (inactive) |
| O=S(=O)(Nc1ccccc1)c1ccc(Oc2ncc(C(F)(F)F)cc2Cl)cc1 | > 10 µM (inactive) |

| SMILES | IC50 |
| --- | --- |
| COc1ccc(CCN2C(=O)c3[nH]nc(-c4ccccc4O)c3C2c2cccc(Cl)c2)cc1 (configuration not stated) | > 10 µM (inactive) |
| Cc1cc(C)c2nc(C(F)(F)F)c(C#N)c(N)c2c1 | 8.25 µM (inactive) |
| CC1CCC(C(C)C)C(OCC(O)CN2CCN(Cc3ccccc3)CC2)C1 (configuration not stated) | 7 µM (inactive) |
| CCOC(=O)c1c(C)[nH]c2c1-c1ccccc1C(=O)C2=O | 2.38 µM |
| O=[N+]([O-])c1ccc(/C=N/N=C/c2ccc([N+](=O)[O-])o2)o1 | 1.78 µM |
| CCN1C/C(=C/c2ccc(OC)c(O)c2)C(=O)/C(=C/c2ccc(OC)c(O)c2)C1 | 5.33 µM (inactive) |
| CC(C)c1nnc(N2C(=O)c3oc4ccccc4c(=O)c3C2c2ccco2)s1 (configuration not stated) | > 10 µM (inactive) |
| Cc1ccc(NC(=O)c2ccc(Nc3c([N+](=O)[O-])cc([N+](=O)[O-])cc3[N+](=O)[O-])cc2)cc1 | 1.81 µM |
| S=C(NCCc1ccc(Cl)cc1)Nc1ccc(Cl)cc1Cl | 9.93 µM (inactive) |
| CC(C)COc1ccc(/C(=N/O)c2ccccc2)cc1 | 5.73 µM (inactive) |
| C[C@H]1C[C@@H](C)C(=O)[C@@H]([C@H](O)CC2CC(=O)NC(=O)C2)C1 | < 0.16 µM (inactive) |
| CCOc1ccc(-n2c(SCC(=O)Nc3ccc(Br)cc3)nc3n[nH]c(C)c3c2=N)cc1 | 8.02 µM (inactive) |
| Cc1cccc(N2CCN(C(=O)CS(=O)(=O)Cc3nc(-c4ccccc4F)oc3C)CC2C)c1 (configuration not stated) | > 10 µM (inactive) |
| Cc1cccc(OCc2nnc(SCc3nc4cc(C(F)(F)F)ccc4c(=O)[nH]3)o2)c1 | 8.17 µM (inactive) |
| O=C(Nc1ccc(Cl)cc1)Nc1ccc(N2CCCC2)c(S(=O)(=O)Nc2ccccc2Cl)c1 | 5.95 µM (inactive) |
| O=C(O)c1ccc(N/N=C/c2ccc3nccnc3c2)cc1 | 6.06 µM (inactive) |
| Cc1ccccc1CS(=O)(=O)c1nnc([C@H](CC(C)C)NC(=O)OC(C)(C)C)o1 | 4.63 µM |
| Cc1cc(/C=N/n2cnnc2)c(C)n1-c1ccc(OCc2ccccc2F)cc1 | 4.88 µM |
| N#CC1=C(N)N2C(=C(C#N)C1c1ccc(Br)cc1)Nc1ccccc12 (configuration not stated) | > 10 µM (inactive) |
| NS(=O)(=O)c1ccc(N/N=C2/CCCCC2C2CCCCC2)c([N+](=O)[O-])c1 (configuration not stated) | 5.37 µM (inactive) |
| Cc1ccc(CNCc2cc3c(C(C)(C)C)nn(-c4ccccc4)c3[nH]c2=O)cc1 | 7.24 µM (inactive) |
